Converted amounts (≈) assume the structure as drawn. Where two headings read alike, the source gives them in different places.
Experiment: Saturation solubility
Format: physicochemical
Description: For 48 h, a known excess of the samples (etoricoxib solid dispersions, physical mixtures, and pure etoricoxib) containing 10 mg of etoricoxib was mixed with 10 mL of phosphate buffer (pH = 6.8) and 0.1 N HCL (pH = 1.2) and placed in a constant-temperature rotating water bath (Gyromax—Frederick, MD, USA) set to 50 rpm (37 ± 0.5 °C). The samples were then filtered, diluted, and analyzed at 233 nm using a UV-VIS spectrophotometer (Shimadzu). The concentration of etoricoxib was then estimated. The experiment was carried out three times.

For Cc1ccc(-c2ncc(Cl)cc2-c2ccc(S(C)(=O)=O)cc2)cn1 [Pure Etoricoxib, 5-chloro-6’-methyl-3-[4-(methylsulfonyl)phenyl]-2,3-bipyridine], the solubility at 48 h (0.1 N HCl, pH 1.2, pure drug, 0.1 N HCL pH 1.2, 37 °C, read-out: Saturation solubility of pure etoricoxib in 0.1 N HCL pH(1.2)) was 73.8 µg/mL (≈ 206 µM), the solubility at 48 h (phosphate buffer, pH 6.8, pure drug, phosphate buffer pH 6.8, 37 °C, read-out: Saturation solubility of pure etoricoxib in Phosphate buffer pH(6.8)) was 71.1 µg/mL (≈ 198 µM) and the “Saturation solubility of pure etoricoxib in Phosphate buffer pH(6.8)” value (pure drug, phosphate buffer pH 6.8, 37 °C, 48 h) was 71.12 μg/mL ± 1.23.

Reference: article PMC10525456, “A Comparative Study on Cyclodextrin Derivatives in Improving Oral Bioavailability of Etoricoxib as a Model Drug: Formulation and Evaluation of Solid Dispersion-Based Fast-Dissolving Tablets” (Biomedicines, 2023)
